# Experimental data published in ChEMBL document CHEMBL5375954, “Discovery and Evaluation of C6-Substituted Pyrazolopyrimidine-Based Bisphosphonate Inhibitors of the Human Geranylgeranyl Pyrophosphate Synthase and Evaluation of Their Antitumor Efficacy in Multiple Myeloma, Pancreatic Ductal Adenocarcinoma, and Colorectal Cancer” (J Med Chem, 2023).
# Calls of active or inactive are those of the source. No cut-off for these calls is given here.
# Key:
# [1] = biological target: T1, Geranylgeranyl pyrophosphate synthase (Homo sapiens, UniProt O95749); experiment: Inhibition of N-terminal His6 tagged human GGPPS expressed in Escherichia coli BL21(DE3) cells in presence of FPP and [14C]IPP by scintillation counting analysis
# T1 sequence (O95749 whole entry): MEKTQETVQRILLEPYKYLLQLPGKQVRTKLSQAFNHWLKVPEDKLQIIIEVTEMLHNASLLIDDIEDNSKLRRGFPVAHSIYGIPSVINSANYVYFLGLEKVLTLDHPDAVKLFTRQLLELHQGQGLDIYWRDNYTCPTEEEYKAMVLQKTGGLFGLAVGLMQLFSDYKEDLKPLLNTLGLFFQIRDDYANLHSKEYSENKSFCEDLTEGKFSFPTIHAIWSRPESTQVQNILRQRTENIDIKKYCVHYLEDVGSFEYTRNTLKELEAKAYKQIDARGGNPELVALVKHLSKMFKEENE
# RPMI-8226 [2] = experiment: cells; settings: Homo sapiens, RPMI-8226, 72 h
# Mus musculus = species: Mus musculus; experiment: Cytotoxicity against KPC mouse pancreatic cancer organoid ccmT4 at 1 uM incubated for 72 hrs by CellTiter-Glo luminescence based analysis; format: functional, tissue-based
# MIA PaCa-2 [3] = experiment: cells; settings: Homo sapiens, MIA PaCa-2, 72 h
# HCT-116 [4] = experiment: cells; settings: Homo sapiens, HCT-116, 72 h
# [5] = Cytotoxicity against human IMR-90 cells assessed as inhibition of cell growth incubated for 72 hrs by MTS assay; format: toxicity, cell-based
# [6] = Cytotoxicity against wild type mouse normal ductal organoid [N(10128)] at 1 uM incubated for 72 hrs by CellTiter-Glo luminescence based analysis; format: toxicity, tissue-based
# [7] = Cytotoxicity against Normal human bronchial epithelial cells assessed as inhibition of cell growth incubated for 72 hrs by MTS assay; format: toxicity, cell-based
# [8] = Cytotoxicity against wild type mouse normal ductal organoid [N(10128)] at low nM concentrations incubated for 72 hrs by CellTiter-Glo luminescence based analysis; format: toxicity, tissue-based
# MIA PaCa-2 [9] = experiment: Antiproliferative activity against human MIA PaCa-2 cells assessed as inhibition of cell growth at 1 uM incubated for 72 hrs by MTS assay; format: functional, cell-based
# [10] = biological target: T2, Farnesyl pyrophosphate synthase (Homo sapiens) (UniProt P14324); experiment: Inhibition of N-terminally His6-tagged recombinant human FPPS expressed in Escherichia coli BL21(DE3) cells using […] and [14C]IPP as substrate at 1 uM preincubated for 10 mins followed by substrate addition by scintillation counting analysis relative to control
# T2 sequence (whole entry): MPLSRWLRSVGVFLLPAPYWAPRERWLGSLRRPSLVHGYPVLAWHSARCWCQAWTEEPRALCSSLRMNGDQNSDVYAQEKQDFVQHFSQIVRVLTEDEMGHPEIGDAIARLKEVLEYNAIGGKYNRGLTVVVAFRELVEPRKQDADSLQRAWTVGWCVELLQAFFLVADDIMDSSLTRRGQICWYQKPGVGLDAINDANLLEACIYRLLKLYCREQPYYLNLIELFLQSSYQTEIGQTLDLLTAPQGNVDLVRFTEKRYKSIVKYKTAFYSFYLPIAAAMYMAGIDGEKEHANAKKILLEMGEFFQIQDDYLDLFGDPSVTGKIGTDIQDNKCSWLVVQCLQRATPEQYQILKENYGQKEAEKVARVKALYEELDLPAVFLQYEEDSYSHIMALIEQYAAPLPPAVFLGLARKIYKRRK
# HCT-116 [11] = experiment: Antiproliferative activity against human HCT-116 cells assessed as inhibition of cell growth at 1 uM incubated for 72 hrs by MTS assay; format: functional, cell-based
# JJN-3 = experiment: Antiproliferative activity against human JJN-3 cells harboring wild type KRAS at 0.1 to 10000 nM incubated for 72 hrs by MTS assay; format: functional, cell-based; settings: dose 0.1-10000 nM
# KMS-12-PE = experiment: Antiproliferative activity against human KMS-12-PE cells harboring wild type KRAS at 0.1 to 10000 nM incubated for 72 hrs by MTS assay; format: functional, cell-based; settings: dose 0.1-10000 nM
# [12] = biological target: T3, Ras-related protein Rap-1A (Homo sapiens) (UniProt P62834); experiment: Inhibition of RAP-1A prenylation in human HCT-116 cells incubated for 48 hrs by Western blot analysis; format: cell-based; settings: dose 10-1000 nM
# T3 sequence (whole entry): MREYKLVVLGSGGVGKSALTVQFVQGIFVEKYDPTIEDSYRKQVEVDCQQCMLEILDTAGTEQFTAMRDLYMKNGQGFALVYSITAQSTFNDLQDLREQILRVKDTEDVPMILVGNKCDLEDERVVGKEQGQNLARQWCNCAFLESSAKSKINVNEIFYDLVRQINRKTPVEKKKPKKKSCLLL
# KMS-28PE = experiment: Antiproliferative activity against human KMS-28-PE cells harboring KRAS G12A mutant at 0.1 to 10000 nM incubated for 72 hrs by MTS assay; format: functional, cell-based; settings: dose 0.1-10000 nM
# RPMI-8226 [13] = experiment: Induction of ER stress in human RPMI-8226 cells at 1 uM; format: functional, cell-based
# [14] = Cytotoxicity against Normal human bronchial epithelial cells assessed as inhibition of cell growth at 10 uM incubated for 72 hrs by MTS assay relative to control; format: toxicity, cell-based
# [15] = biological target: T3, Ras-related protein Rap-1A (Homo sapiens); experiment: Inhibition of RAP-1A prenylation in human MIA PaCa-2 cells incubated for 48 hrs by Western blot analysis; format: cell-based; settings: dose 10-1000 nM
# RPMI-8226 [16] = experiment: Antiproliferative activity against human RPMI-8226 cells harboring KRAS G12A mutant at 0.1 to 10000 nM incubated for 72 hrs by MTS assay; format: functional, cell-based; settings: dose 0.1-10000 nM
Structure (SMILES),IC50 [1] [µM],EC50 (RPMI-8226 [2]) [µM],also measured
Cn1cnc2c(NC(P(=O)(O)O)P(=O)(O)O)nc(-c3cccc(C(=O)Nc4ccc(C(F)(F)F)cc4)c3)nc21,0.013,0.51,
COc1cccc2c1C(=O)c1c(O)c3c(c(O)c1C2=O)C[C@@](O)(C(=O)CO)C[C@@H]3O[C@H]1C[C@H](N)[C@H](O)[C@H](C)O1 [DOXORUBICIN],,,Activity (Mus musculus): Active; EC50 (MIA PaCa-2 [3]): 0.13 µM; EC50 (HCT-116 [4]): 0.041 µM; EC50 at 72 h [5]: 0.36 µM; Activity [6]: Toxic; EC50 at 72 h [7]: 0.45 µM
O=C(Nc1ccc(F)cc1)c1cccc(-c2nc(NC(P(=O)(O)O)P(=O)(O)O)c3ccsc3n2)c1,0.018,0.12,
CCn1ncc2c(NC(P(=O)(O)O)P(=O)(O)O)nc(-c3cccc(C(=O)Nc4ccc(C(F)(F)F)cc4)c3)nc21,0.03,> 1,
Nc1ccn([C@@H]2O[C@H](CO)[C@@H](O)C2(F)F)c(=O)n1 [GEMCITABINE],,,Activity [8]: Toxic; EC50 (MIA PaCa-2 [3]): 0.002 µM; EC50 (HCT-116 [4]): 0.004 µM
CCn1ncc2c(NC(P(=O)(O)O)P(=O)(O)O)nc(-c3cccc(C(=O)Nc4ccc(OC)c(F)c4)c3)nc21,0.04,> 1,Activity (MIA PaCa-2 [9]): inactive; inhibition [10]: < 10%; Activity (HCT-116 [11]): inactive
CCn1cc2c(NC(P(=O)(O)O)P(=O)(O)O)nc(-c3cccc(C(=O)Nc4ccc(OC)c(F)c4)c3)nc2n1,0.067,0.552,
Cn1ncc2c(NC(P(=O)(O)O)P(=O)(O)O)nc(-c3cccc(C(=O)Nc4ccc(F)cc4)c3)nc21,0.031,0.44,
COc1ccc(NC(=O)c2cccc(-c3nc(NC(P(=O)(O)O)P(=O)(O)O)c4cnn(C(C)C)c4n3)c2)cc1F,0.041,> 1,Activity (MIA PaCa-2 [9]): inactive; inhibition [10]: < 10%; Activity (HCT-116 [11]): inactive
COc1ccc(NC(=O)c2cccc(-c3nc(NC(P(=O)(O)O)P(=O)(O)O)c4cnn(C)c4n3)c2)cc1F,0.048,0.15,Activity (MIA PaCa-2 [9]): inactive; inhibition [10]: < 10%; Activity (HCT-116 [11]): inactive
CC(C)n1ncc2c(NC(P(=O)(O)O)P(=O)(O)O)nc(-c3cccc(C(=O)Nc4ccc(F)cc4)c3)nc21,0.03,> 1,
Cn1cnc2c(NC(P(=O)(O)O)P(=O)(O)O)nc(-c3cccc(C(=O)Nc4ccc(F)cc4)c3)nc21,0.041,0.67,
COc1ccc(NC(=O)c2cccc(-c3nc(NC(P(=O)(O)O)P(=O)(O)O)c4cn(C)nc4n3)c2)cc1F,0.056,0.52,inhibition [10]: 15%
COc1ccc(NC(=O)c2cccc(-c3nc(NC(P(=O)(O)O)P(=O)(O)O)c4ncn(C)c4n3)c2)cc1F,0.058,0.17,Activity (MIA PaCa-2 [9]): inactive; inhibition [10]: < 10%; Activity (HCT-116 [11]): inactive
O=C(Nc1ccc(F)cc1)c1cccc(-c2nc(NC(P(=O)(O)O)P(=O)(O)O)c3cn[nH]c3n2)c1,0.039,> 1,
CC(C)n1ncc2c(NC(P(=O)(O)O)P(=O)(O)O)nc(-c3cccc(C(=O)Nc4ccc(C(F)(F)F)cc4)c3)nc21,0.02,> 1,
O=C(Nc1ccc(C(F)(F)F)cc1)c1cccc(-c2nc(NC(P(=O)(O)O)P(=O)(O)O)c3ccsc3n2)c1,0.012,0.16,
COc1ccc(NC(=O)c2cccc(-c3nc(NC(P(=O)(O)O)P(=O)(O)O)c4ccsc4n3)c2)cc1F,,,"Activity (JJN-3): Active; Activity (KMS-12-PE): Active; inhibition [12]: Dose-Dependent Effect; Activity (Mus musculus): Active; Activity (KMS-28PE): Active; Activity (RPMI-8226 [13]): Active; inhibition at 72 h, 10 µM [14]: ~30%; inhibition [15]: Dose-Dependent Effect; Activity [6]: Non-Toxic; Activity (RPMI-8226 [16]): Active"
O=C(Nc1ccc(C(F)(F)F)cc1)c1cccc(-c2nc(NC(P(=O)(O)O)P(=O)(O)O)c3cn[nH]c3n2)c1,0.008,> 1,
COc1ccc(NC(=O)c2cccc(-c3nc(NC(P(=O)(O)O)P(=O)(O)O)c4cn[nH]c4n3)c2)cc1F,0.025,0.64,Activity (MIA PaCa-2 [9]): inactive; inhibition [10]: 10%; Activity (HCT-116 [11]): inactive
CCn1ncc2c(NC(P(=O)(O)O)P(=O)(O)O)nc(-c3cccc(C(=O)Nc4ccc(F)cc4)c3)nc21,0.029,> 1,
